# Test results published in US20090247520A1, “INHIBITORS OF ANTIGEN RECEPTOR-INDUCED NF-kappa B ACTIVATION” (The Burnham Institute for Medical Research, priority 2008, published 2009).
# Test system: Raf
# Test: KINOMEscan competition binding assay, Raf
# Set-up: species or system human
# Settings: 10 μM
# Source text: CID-2858522 is not a potent protein kinase inhibitor. Protein kinases play critical roles in NF-κB activation. PKCs are proximal kinases in the NF-κB pathways activated by PMA/Ionomycin and by T- and B-cell antigen receptors, while the IKKs are distal kinases operating in the terminal segments of these and other NF-κB activation pathways. We therefore tested whether CID-2858522 inhibits members of these kinase families by in vitro kinase assays. For these experiments, we tested PKC-beta and PKC-theta (the PKC family members implicated in TCR/BCR signaling), and IKK-beta (a component of the IKK complex) (FIG. 6). […] In addition to assessing these three kinases by conventional in vitro kinase assays, a kinome screen was performed using a high throughput screening method, KINOMEscan™, which is an active-site dependent competition binding assay in which human kinases of interest are fused to a proprietary tag (Ambit). The amount of kinase bound to an immobilized, active-site directed ligand is measured in the presence and absence of the test compound. […] Thus, CID-2858522 inhibits none of the protein kinases previously implicated in regulating NF-κB.
# In Vitro Kinase Assays. PKC-beta, PKC-theta and IKK-beta in vitro kinase assays were performed using the HTScan Kinase Assay Kit (Cell Signaling, Danvers, Mass.) according to manufacturer's protocols. […]
structure (smiles),measurement,value
"Cc1cc2nc(NCCCO)n(CC(=O)c3cc(C(C)(C)C)c(O)c(C(C)(C)C)c3)c2cc1C [Compound 1, 2-(2-(3-Hydroxypropylamino)-5,6-dimethyl-1H-benzo[d]imidazol-1-yl)-1-(3,5-di-tert-butyl-4-hydroxyphenyl)ethanone]",inhibition of Raf,57%
